pIC50, pKi: −log10 of the molar value.
Experiments:
serotonin transporter = serotonin transporter (Rattus norvegicus (Rat), UniProt P31652); experiment: Inhibitory effect on [3H]5-HT uptake in rat synaptosome; assay type: biochemical; conditions: rat brain synaptosomes, 37° C., 15 minutes, 0.1 μCi [3H]5-HT
Method: The synaptosomes (150 μg) prepared from the rat brain were incubated at 37° C. for 15 minutes with 0.1 μCi [^3H]5-HT in the absence or presence of the test compound or the reference compound in a buffer solution containing 106.2 mM NaCl, 4.5 mM KCl, 2.25 mM MgSO4, 1.08 mM NaH2PO4, 22.5 mM NaHCO3, 9.9 mM glucose, 9 μM EGTA and 45 μM ascorbic acid (pH 7.4).
Inhibition of serotonin transporter in rat synaptosome was measured by the concentrations of [^3H]5-HT.

5-HT1A receptor = 5-HT1A receptor (Homo sapiens (Human), UniProt P08908); experiment: Affinity for human 5-HT1A receptor ([3H]8-OH-DPAT binding, HEK-293 cell homogenates); conditions: read-out: Ki, binding affinity for 5-HT1A receptor; 0.3 nM [3H]8-OH-DPAT, human HEK-293 cell homogenates, 22° C., 60 minutes;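 also: Filter-retained radioactivity counted by scintillation, non-specific binding defined with 10 µM 8-OH-DPAT, Ki derived from percent inhibition of specific radioligand binding versus control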
Method: The non-specific binding value was determined by incubating the same mixture in the presence of 10 μM 8-OH-DPAT, which was used as the standard reference compound and tested in each experiment at several concentrations to obtain a competition curve.
Following the incubation, the samples were filtered rapidly under vacuum through glass fiber filter (GF/B, Packard) presoaked with 0.3% PEI and rinsed several times with ice-cold 50 mM Tris-HCl using a 96-sample cell harvester (Unifilter, Packard). The filters were dried and the retained radioactivity was measured in a scintillation counter (Topcount, Packard) using a scintillation cocktail (Microscint 0, Packard). The experimental results were expressed as a percent inhibition of the control radioligand specific binding, and Ki was the inhibition constant.

dopamine D2S receptor = dopamine D2S receptor (Homo sapiens (Human), UniProt P14416); experiment: Affinity for human dopamine D2S receptor ([3H]methyl-spiperone binding); conditions: 0.3 nM [3H]methyl-spiperone, cell membrane homogenates, 22° C., 60 minutes
Chain of dopamine D2S receptor (P14416 other isoform, or with tags, fused parts or gaps): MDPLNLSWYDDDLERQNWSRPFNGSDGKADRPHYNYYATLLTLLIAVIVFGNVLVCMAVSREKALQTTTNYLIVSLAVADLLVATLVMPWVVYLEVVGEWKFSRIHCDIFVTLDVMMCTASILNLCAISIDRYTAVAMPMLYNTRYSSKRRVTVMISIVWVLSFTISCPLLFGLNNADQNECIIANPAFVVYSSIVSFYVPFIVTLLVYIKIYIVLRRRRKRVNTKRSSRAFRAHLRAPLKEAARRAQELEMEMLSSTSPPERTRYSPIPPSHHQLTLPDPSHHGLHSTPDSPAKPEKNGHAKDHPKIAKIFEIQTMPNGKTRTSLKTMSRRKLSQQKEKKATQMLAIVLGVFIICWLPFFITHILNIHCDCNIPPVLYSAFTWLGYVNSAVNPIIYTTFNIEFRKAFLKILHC
Method: Cell membrane homogenates (24 μg protein) were incubated at 22° C. for 60 minutes with 0.3 nM [3H]methyl-spiperone in the absence or presence of the test compound in a buffer solution containing 50 mM Tris-HCl (pH 7.4), 120 mM NaCl, 5 mM KCl, 5 mM MgCl2 and 1 mM EDTA.
The non-specific binding value was determined by incubating the same mixture in the presence of 10 μM (+)butaclamol.
Following the incubation, the samples were filtered rapidly under vacuum through glass fiber filter (GF/B, Packard) presoaked with 0.3% PEI and rinsed several times with ice-cold 50 mM Tris-HCl using a 96-sample cell harvester (Unifilter, Packard). The filters were dried and the retained radioactivity was measured in a scintillation counter (Topcount, Packard) using a scintillation cocktail (Microscint 0, Packard).
The experimental results were expressed as a percent inhibition of the control radioligand specific binding, and Ki was the inhibition constant. The standard reference compound was (+)butaclamol, which was tested in each experiment at several concentrations to obtain a competition curve from which its IC50 was calculated, and then Ki value was calculated by ChengPrusoff equation.

Chain of 5-HT1A receptor (P08908 whole entry): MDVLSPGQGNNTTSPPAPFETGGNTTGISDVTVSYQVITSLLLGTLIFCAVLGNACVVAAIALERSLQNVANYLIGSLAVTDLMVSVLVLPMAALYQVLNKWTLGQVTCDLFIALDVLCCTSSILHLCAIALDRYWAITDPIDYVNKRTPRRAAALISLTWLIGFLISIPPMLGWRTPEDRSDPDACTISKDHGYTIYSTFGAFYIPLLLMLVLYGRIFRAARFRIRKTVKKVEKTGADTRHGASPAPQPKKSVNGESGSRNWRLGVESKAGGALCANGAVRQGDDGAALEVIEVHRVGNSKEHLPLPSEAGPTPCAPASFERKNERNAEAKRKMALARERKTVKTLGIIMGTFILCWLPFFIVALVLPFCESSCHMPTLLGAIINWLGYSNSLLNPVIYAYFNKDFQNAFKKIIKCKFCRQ
Chain of serotonin transporter (P31652 whole entry): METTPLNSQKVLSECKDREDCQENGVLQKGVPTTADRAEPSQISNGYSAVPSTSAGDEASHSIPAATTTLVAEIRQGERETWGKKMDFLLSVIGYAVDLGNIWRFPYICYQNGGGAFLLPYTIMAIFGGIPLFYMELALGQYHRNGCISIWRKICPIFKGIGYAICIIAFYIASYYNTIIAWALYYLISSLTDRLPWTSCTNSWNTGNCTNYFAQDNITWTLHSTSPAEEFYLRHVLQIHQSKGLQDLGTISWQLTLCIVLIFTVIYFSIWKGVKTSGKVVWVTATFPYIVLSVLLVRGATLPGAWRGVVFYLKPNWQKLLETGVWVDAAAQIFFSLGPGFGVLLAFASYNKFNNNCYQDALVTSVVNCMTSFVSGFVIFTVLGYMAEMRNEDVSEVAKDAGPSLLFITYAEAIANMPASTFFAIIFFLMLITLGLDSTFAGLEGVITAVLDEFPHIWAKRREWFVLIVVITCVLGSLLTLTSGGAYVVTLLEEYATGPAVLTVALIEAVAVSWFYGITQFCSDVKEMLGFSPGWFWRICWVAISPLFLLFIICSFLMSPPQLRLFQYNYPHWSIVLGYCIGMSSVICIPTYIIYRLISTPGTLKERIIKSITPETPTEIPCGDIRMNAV

SMILES | pIC50 (serotonin transporter) | pKi (5-HT1A receptor) | pKi (dopamine D2S receptor)
N#Cc1ccc2[nH]cc(CCCN3CCN(c4nccc(C#N)n4)CC3)c2c1 [Example 26, 3-(3-(4-(4-Cyanopyrimidin-2-yl)piperazin-1-yl)propyl)-1H-indole-5-carbonitrile] | 8.59 | 8.10 | 6.72
NC(=O)c1ccnc(N2CCN(CCCCc3c[nH]c4ccc(F)cc34)CC2)n1 [Example 27, 2-(4-(4-(5-Fluoro-1H-indol-3-yl)butyl)piperazin-1-yl)pyrimidine-4-carboxamide] | 8.57 | 7.22 | < 6.00
N#Cc1ccc2[nH]cc(CCCCN3CCN(c4nccc(C(N)=O)n4)CC3)c2c1 [Example 28, 2-(4-(4-(5-Cyano-1H-indol-3-yl)butyl)piperazin-1-yl)pyrimidine-4-carboxamide] | 9.00 | 8.00 | 6.51
NC(=O)c1ccnc(N2CCN(CCCc3c[nH]c4ccc(F)cc34)CC2)n1 [Example 29, 2-(4-(3-(5-Fluoro-1H-indol-3-yl)propyl)piperazin-1-yl)pyrimidine-4-carboxamide] | 8.85 | 7.92 | 6.64
N#Cc1ccc2[nH]cc(CCCN3CCN(c4nccc(C(N)=O)n4)CC3)c2c1 [Example 30, 2-(4-(3-(5-Cyano-1H-indol-3-yl)propyl)piperazin-1-yl)pyrimidine-4-carboxamide] | 9.12 | 7.85 | < 6.00
CCOC(=O)c1sc(N2CCN(CCCCc3c[nH]c4ccc(F)cc34)CC2)nc1C [Example 37, Ethyl 2-(4-(4-(5-fluoro-1H-indol-3-yl)butyl)piperazin-1-yl)-4-methylthiazole-5-carboxylate] | 8.15 | 8.26 | 6.89
CCOC(=O)c1sc(N2CCN(CCCc3c[nH]c4ccc(F)cc34)CC2)nc1C [Example 38, Ethyl 2-(4-(3-(5-fluoro-1H-indol-3-yl)propyl)piperazin-1-yl)-4-methylthiazole-5-carboxylate] | 7.96 | 9.57 | 6.57
CCOC(=O)c1sc(N2CCN(CCCc3c[nH]c4ccc(C#N)cc34)CC2)nc1C [Example 40, Ethyl 2-(4-(3-(5-cyano-1H-indol-3-yl)propyl)piperazin-1-yl)-4-methylthiazole-5-carboxylate] | 8.46 | 9.52 | < 6.00
Cc1nc(N2CCN(CCCCc3c[nH]c4ccc(F)cc34)CC2)sc1C(N)=O [Example 41, 2-(4-(4-(5-Fluoro-1H-indol-3-yl)butyl)piperazin-1-yl)-4-methylthiazole-5-carboxamide] | 8.62 | 7.64 | 6.85
Cc1nc(N2CCN(CCCc3c[nH]c4ccc(F)cc34)CC2)sc1C(N)=O [Example 42, 2-(4-(3-(5-Fluoro-1H-indol-3-yl)propyl)piperazin-1-yl)-4-methylthiazole-5-carboxamide] | 8.28 | 8.35 | 6.51
Cc1nc(N2CCN(CCCc3c[nH]c4ccc(C#N)cc34)CC2)sc1C(N)=O [Example 44, 2-(4-(3-(5-Cyano-1H-indol-3-yl)propyl)piperazin-1-yl)-4-methylthiazole-5-carboxamide] | 8.37 | 8.43 | < 6.00
Cc1nc(N2CCN(CCCCc3c[nH]c4ccc(F)cc34)CC2)sc1C#N [Example 45, 2-(4-(4-(5-Fluoro-1H-indol-3-yl)butyl)piperazin-1-yl)-4-methylthiazole-5-carbonitrile] | 8.08 | 7.85 | < 6.00
Cc1nc(N2CCN(CCCc3c[nH]c4ccc(F)cc34)CC2)sc1C#N [Example 46, 2-(4-(3-(5-Fluoro-1H-indol-3-yl)propyl)piperazin-1-yl)-4-methylthiazole-5-carbonitrile] | 7.74 | 8.38 | < 6.00
Cc1nc(N2CCN(CCCCc3c[nH]c4ccc(C#N)cc34)CC2)sc1C#N [Example 47, 2-(4-(4-(5-Cyano-1H-indol-3-yl)butyl)piperazin-1-yl)-4-methylthiazole-5-carbonitrile] | 8.82 | 8.30 | 6.89

Source: patent publication US9598401B2, “Substituted heteroaryl compounds and methods of use thereof” (Sunshine Lake Pharma Co., Ltd., priority 2013, dated 2017)
